Results reported in patent publication US10047115B2, “Cyclic dinucleotides useful for the treatment of inter alia cancer” (priority 2015, dated 2018).

Test system: Female Balb/C mice
Assay: Adjuvant activity in mice, HBsAg model, serum ELISA antibody titers
Details: for HBsAg-specific serum IgG: HBsAg administered IM with adjuvant; for Anti-HBsAg titers compared with the nonadjuvanted benchmark: mice vaccinated IM
Protocol: This objective of this study was to evaluate the potential of STING agonists of the present invention to function as adjuvants in mice using the HBsAg model.
Female Balb/C Mice were Vaccinated IM
Vaccines were delivered intramuscularly two times at 21 day intervals, and sera were evaluated for systemic antibody responses. Spleens (3 mice/group) were collected for Luminex/ICS analysis.
Sera were harvested 14dp1 and 14dp2 vaccination. Serum was evaluated by ELISA for anti-HBsAg IgG, IgG1, and IgG2a titers.

Compound | HBsAg-specific serum IgG | HBsAg-specific IgG levels, dose response (four doses, IM) | Anti-HBsAg titers compared with the nonadjuvanted benchmark | antibody titers compared with cGAMP (relative to dose)
Nc1nc2c(ncn2[C@@H]2O[C@@H]3COP(=O)(O)O[C@H]4[C@@H](F)[C@H](n5cnc6c(N)ncnc65)O[C@@H]4COP(=O)(O)O[C@@H]2[C@@H]3O)c(=O)[nH]1 [Example 1, (1R,6R,8R,9R,10R,15R,17R,18R)-17-(2-Amino-6-oxo-6,9-dihydro-1H-purin-9-yl)-8-(6-amino-9H-purin-9-yl)-9-fluoro-3,12,18-trihydroxy-2,4,7,11,13,16-hexaoxa-3λ^5,12λ^5-diphosphatricyclo[13.2.1.0^6,10]octadecane-3,12-dione] | high levels | dose responsive | significantly higher | no significant differences
Nc1nc2c(ncn2[C@@H]2O[C@@H]3COP(=O)(O)O[C@H]4[C@@H](O)[C@H](n5cnc6c(N)ncnc65)O[C@@H]4COP(=O)(O)O[C@@H]2[C@@H]3O)c(=O)[nH]1 [cGAMP, reference compound] | high levels |  | significantly higher | 
